Series [1] concerns the target T1, FLT3 (Homo sapiens, UniProt P36888).
T1 construct: Recombinant proteins containing the FLT3 kinase domain were purchased from Carna biosciences (Japan); purchased Carna biosciences (Japan)
T1 sequence (P36888 610-943 limits assumed): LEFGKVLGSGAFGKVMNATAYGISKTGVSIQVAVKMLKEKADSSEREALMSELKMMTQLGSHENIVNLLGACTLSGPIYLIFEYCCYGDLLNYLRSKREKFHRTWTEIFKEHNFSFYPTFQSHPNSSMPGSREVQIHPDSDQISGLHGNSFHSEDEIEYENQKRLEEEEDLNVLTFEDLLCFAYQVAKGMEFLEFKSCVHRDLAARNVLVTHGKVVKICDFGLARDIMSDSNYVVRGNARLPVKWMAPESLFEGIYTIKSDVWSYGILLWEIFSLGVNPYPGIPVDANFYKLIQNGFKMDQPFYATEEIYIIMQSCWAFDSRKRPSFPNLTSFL
As to the kind of experiment: In vitro FLT3 kinase assay (HTRF). It counts as biochemical. Conditions: recombinant FLT3, HTRF; read-out: IC50 FLT3 kinase activity. How it is done:
The inhibition of the FLT3 kinase activity was measured with homogeneous, time-resolved fluorescence (HTRF) assays. Recombinant proteins containing the FLT3 kinase domain were purchased from Carna biosciences (Japan). Optimal enzyme, ATP, and substrate concentrations were established with the HTRF KinEASE kit (Cisbio, France) according to the manufacturer’s instructions. The FLT3 enzymes were mixed with serially diluted compounds and peptide substrates in a kinase reaction buffer (50 mM HEPES (pH 7.0), 500 μM ATP, 0.1 mM sodium orthovanadate, 5 mM MgCl2, 1 mM DTT, 0.01% bovine serum albumin (BSA), and 0.02% NaN3). After the addition of the reagents for detection, the TR-FRET signal was measured with a Victor multilabel reader (Perkin Elmer, Waltham, MA, USA). […] JAK2, JAK3, cMET, and RET in vitro kinase assays were also carried out using the HTRF assay kit.
(Time-resolved FRET reads energy transfer from a long-lived donor to a nearby acceptor.)

The subject of series [2] is MV-4-11 cells. The series is described as follows: Cell viability / growth inhibition (EZ-Cytox), MV-4-11. The format is cell-based, human. The note with it: 72 h; called IC50 in supplementary text. As to the method:
The cultured cells were incubated at 37°C with 5% CO2. Cell viability was assessed with a tetrazolium-based assay using the EZ-Cytox Cell Viability Assay kit (DaeilLab, Korea). Briefly, 2,000 ∼ 15,000 cells were plated in 96-well flat bottom plates in 100 µl of medium. The next day, the cells were treated with compounds along with dimethyl sulfoxide (DMSO, Fisher, Waltham, MA, USA) as a negative control. […] After incubation, the optical density (OD) was measured at a wavelength of 450 nm with a Victor multilabel reader (Perkin Elmer, Waltham, MA, USA).

Series [3] relates to FLT3, VEGFR1/2, PDGFRβ, and PKCα/β/γ. On the set-up: method as in PMID 10888033. The note with it: read-out: IC50s against kinases including FLT3, VEGFR1/2, PDGFRβ, and PKCα/β/γ; cited from earlier work.
Series [4] in a line: Pharmacokinetics in mice (intravenous and oral). The format is in vivo, ICR mice. The note with it: for AUC1940/AUC1937 / AUC / Ae0–24 h / Cmax / GI24 h / Terminal half-life / Tmax: mice. How it is done:
The protocols for the animal studies were approved by the Institute of Laboratory Animal Resources of Dongguk University, Seoul, South Korea (IACUC-2015-055-1). Five-week-old male Imprinting Control Region (ICR) mice were purchased from the Charles River Company Korea (Orient, Seoul, South Korea). Upon arrival, the animals were randomized and housed four per cage under strictly controlled environmental conditions (22-25°C and 48-52% relative humidity) with a 12 h light/dark cycle at an intensity of 150 to 300 Lux. All mice were provided food and water ad libitum and were then maintained during this study. In the intravenous study of LDD1937, 10 mg/kg of LDD1937 (dissolved in distilled water at a concentration of 2 mg/ml) were intravenously injected into the mice through the tail vein. A blood sample of approximately 0.12 ml was collected by cardiac puncture. Additionally, in the oral study of LDD1937, 10 mg/kg of LDD1937 (dissolved in the same solution used in the intravenous study) were orally administered to the mice. The analysis of LDD1937 and LDD1940, a metabolite of LDD1937, in biological samples was done with LC-MS/MS using the Waters UPLC-XEVO TQ system (Waters Corporation, Milford, CT, USA). […]1940, and carbamazepine (an internal standard, IS) were ionized in the multiple reaction monitoring mode with an ESI interface for positive ions ([M+H]^+). The turbo ion-spray interface was operated at an ion capillary voltage of 3.0 kV with a desolvation gas flow of 650 l/h and a cone gas flow of 10 l/h at 350°C. […] Separation was done on a reverse-phase C18 column (BEH, […]; Waters, Ireland) with a mobile phase, distilled water containing 0.1% formic acid and acetonitrile, at 30°C. After measuring the concentrations of the LDD1937 and LDD1940, standard methods were used to calculate the pharmacokinetic parameters using a non-compartmental analysis (WinNonlin 2.1; […] Corp., Mountain View, CA, USA).

Setting [5] is: metabolite LDD1940 after 10 mg/kg LDD1937 intravenous.
Setting [6] is: metabolite LDD1940 after 10 mg/kg LDD1937 oral.

Values joined by “and” are separate entries in the source; they are usually repeats but may differ in a detail not shown here. Equal entries are not always repeated.

The GI50 is the concentration that inhibits growth by half. Turning to `COC(=O)c1ccc2c(c1)/C(=C1/Nc3ccccc3/C1=N\OCCBr)C(=O)N2` [Compound 2], in series [1], the IC50 is 19.2 ± 1.88 nM. In series [2], this compound came in with a GI50 of 51 ± 11 nM.

On to `NCCO/N=C1/C(=C2/C(=O)Nc3ccc(C(=O)O)cc32)Nc2ccccc21` [Compound 9], for which the IC50 in series [1] was found to be 3.3 ± 0.11 nM. The compound further registered a 50% growth inhibitory concentration (GI50) in series [2] of 150 ± 33 nM.

Consider `CO[C@@H]1[C@H](N(C)C(=O)c2ccccc2)C[C@H]2O[C@]1(C)n1c3ccccc3c3c4c(c5c6ccccc6n2c5c31)C(=O)NC4` [midostaurin], for which the IC50 in series [3] was […].

`COC(=O)c1ccc2c(c1)/C(=C1/Nc3ccccc3/C1=N\OCCN)C(=O)N2` [Compound 3]: the IC50 in series [1] was found to be 4.5 ± 0.75 nM. Besides, the GI50 in series [2] is 15 ± 3 nM.

Turning to `CN1CCN(CCO/N=C2/C(=C3/C(=O)Nc4ccc(C(=O)O)cc43)Nc3ccccc32)CC1` [Compound 11], the IC50 in series [1] stood at 3.3 ± 0.6 nM. In series [2], this compound registered a concentration for 50% growth inhibition (GI50) of 176 ± 51 nM.

Regarding `O=C1Nc2ccc(C(=O)O)cc2/C1=C1/Nc2ccccc2/C1=N\O` [Compound 7], in series [2], the concentration for 50% growth inhibition (GI50) was more than 1000 nM and the “GI50 MV-4-11” value is “lack of an anti-proliferative activity”.

Consider `COC(=O)c1ccc2c(c1)/C(=C1/Nc3ccccc3/C1=N\OCCN1CCN(C)CC1)C(=O)N2` [Compound 5], for which the IC50 in series [1] came to 10.8 ± 2.02 nM. In addition, the GI50 in series [2] is 11 ± 1.5 nM.

Turning to `COC(=O)c1ccc2c(c1)/C(=C1/Nc3ccccc3/C1=N\OCCN1CCOCC1)C(=O)N2` [Compound 6], the IC50 in series [1] was 253 ± 81.4 nM. In series [2], this compound had a 50% growth inhibitory concentration (GI50) of 53 ± 11 nM.

As a reminder, the AUC is concentration integrated over time. The Cmax is the peak of the concentration-time curve. In the case of `Cl.Cl.O=C1Nc2ccc(C(=O)O)cc2/C1=C1/Nc2ccccc2/C1=N\OCCN1CCNCC1` [LDD1940], the IC50 in series [1] was 2.45 nM and 2.5 nM. The compound also returned an AUC1940/AUC1937 in series [4] (after 10 mg/kg LDD1937 intravenous) of 42.7 ± 9.44%. In series [4] (after 10 mg/kg LDD1937 oral), this compound had an AUC1940/AUC1937 of 65.3 ± 16.8%. In addition, the “Tmax of LDD1940” value in series [4] (after intravenous and oral administration of LDD1937, mice (span over both routes)) is 1∼15 min. Also, in series [4] (setting [5]), the AUC amounted to 54.6 ± 0.592 µg·min/mL, the “Ae0–24 h” value is 0.868 ± 0.0333 % of dose, the maximum concentration (Cmax) is 1450 ± 694 µg/mL and the GI24 h is 0.719 ± 0.0556 % of dose. Moreover, in series [4] (setting [5]), the Terminal half-life amounted to 2.37 ± 2.02 h and the Tmax was 1 (1–1) min. Moreover, in series [4] (setting [6]), the area under the curve (AUC) was 1.84 ± 0.0741 µg·min/mL, the “Ae0–24 h” value is 0.0787 ± 0.0791 % of dose, the maximum concentration (Cmax) worked out at 8.17 ± 2.44 µg/mL and the GI24 h was 0.792 ± 1.09 % of dose. In series [4] (setting [6]), the Terminal half-life amounted to 12.4 ± 2.15 h and the Tmax is 15 (15–120) min. Besides, it took 40 nM to inhibit growth in series [2] by half (GI50).

`O=C1Nc2ccc(C(=O)O)cc2/C1=C1/Nc2ccccc2/C1=N\OCCN1CCOCC1` [Compound 12]: the IC50 in series [1] turned out to be 7.55 ± 1.01 nM. Also, in series [2], the GI50 was more than 1000 nM.

As to `O=C1Nc2ccc(C(=O)O)cc2/C1=C1/Nc2ccccc2/C1=N\OCCBr` [Compound 8], the IC50 in series [1] turned out to be 12.9 ± 0.97 nM. The compound further gave a 50% growth inhibitory concentration (GI50) in series [2] of 340 ± 81 nM.

The values above are taken from paper PMC5787524, “Discovery of a FLT3 inhibitor LDD1937 as an anti-leukemic agent for acute myeloid leukemia” (Oncotarget, 2017).
